These results are taken from patent US20100047841A1, “SYNTHESIS OF DESACETOXYTUBULYSIN H AND ANALOGS THEREOF” (University of Pittsburgh-of the Commonwealth System of …, priority 2007, published 2010).

For orientation: IC50 means the concentration at which inhibition is half-maximal. High values mean lower potency, low ones higher potency. A word on the GI50: it is the concentration that inhibits growth by half.

Structures can show the parent of a compound that is named as a salt. Where two headings read alike, the source gives them in different places. Bounds are passed on as bounds.

For assay [1], the system named is bovine brain tubulin (peptide/depsipeptide site). Briefly: Inhibition of [3H]dolastatin 10 binding to tubulin (centrifugal gel filtration). As to conditions: 10 μM radiotracer, 10 μM tubulin; for % Inhibition of [3H]dolastatin 10 binding by 5 μM test agent: 30 min room temperature; for IC50: test agent 0.5-100 μM, Hill fit. The method, then:
(§1) The new compounds were tested for their abilities to bind at the vinca domain and at the related peptide/depsipeptide site on tubulin using a modification of a centrifugal gel filtration method described by Bai et al., Mol. Pharmacol. 7: 965-76 (1995). In the initial screens, each 0.32 mL reaction mixture contained 5 μM test agent and 10 μM [^3H]vinblastine (specific activity 8.50 Ci/mmol; GE Healthcare Bio-Sciences, Picataway, N.J.) or 10 μM [^3H]dolastatin 10 (specific activity 1.96 Ci/mmol; obtained from the Drug Synthesis and Chemistry Branch of the National Cancer Institute) predissolved in DMSO (final concentration 1% v/v) and 10 μM bovine brain tubulin, all in 0.1 M 2-(4-morpholino)ethanesulfonic acid (Mes), pH 6.9, containing 0.5 mM MgCl2. The mixture was incubated for 30 min at room temperature. Two 0.15 mL aliquots of the reaction mixture were applied to duplicate 2 mL beds of pre-swollen (in Mes, pH 6.9, containing 0.5 mM MgCl2) Sephadex G-50 (superfine) contained in Handee columns (Pierce Biotechnology, Rockford, Ill.). The columns were centrifuged at 800×g for 4 minutes and the protein concentration in the effluent was determined, using the bicinchoninic acid assay. The amount of radiolabeled ligand bound to tubulin was determined using scintillation spectrometry. Each value represents the mean ±SD of four determinations. […] Inhibition was calculated as the percent difference relative to that of the control incubation with DMSO (i.e., without test agent—assigned as 0% inhibition). […] GraphPad Prism was used to fit the resulting data to the Hill equation to determine the IC50 values.
(Size exclusion chromatography separates by hydrodynamic size, large species first.)

Assay [2] has as its system bovine brain tubulin (vinca domain). The assay is described as follows: Inhibition of [3H]vinblastine binding to tubulin (centrifugal gel filtration). The note with it: for % Inhibition of [3H]vinblastine binding by 5 μM test agent / IC50: 10 μM radiotracer, 10 μM tubulin; for % Inhibition of [3H]vinblastine binding by 5 μM test agent: 30 min room temperature; for IC50: test agent 0.5-100 μM, Hill fit. On the procedure:
as §1

The test system of assay [3] is T98G human glioblastoma cell line. Briefly: Antiproliferative assay (MTS), GI50 in T98G cells. It is filed as cell-based. The note with it: for GI50: Homo sapiens, T98G. The source says: General methods are known for determining the effect of compounds on proliferation of cells. See, e.g., Zhu et al., J. Med. Chem., 2006, 49, 2063-2076. Cells can be selected by one of skill in the art and can be maintained as exponentially growing cultures in a suitable medium (e.g., RPMI 1640 medium) with adjuvents, including FBS, penicillin, and glutamine, provided at levels known to those skilled in this field. For human cancer cells, e.g., human glioblastoma cell line T98G, the cells can be trypsinized and washed prior to formation of a cell suspension in appropriate buffer and plating of the cell suspension. Typical microtiter plate amounts can be 500-2000 cells/well. The cells can be allowed to attach and grow for a defined time period (e.g., 36 hours, 72 hours, 96 hours, or other defined period) before treatment with either vehicle (e.g., dimethylsulfoxide) or test agent (e.g., compound of the invention) followed by an additional defined time period (e.g., 36 hrs, 72 hrs, 96 hrs, and the like). At the end of the additional defined time period, viability of the cells can be determined by any of a variety of methods known in the art, including assays employing MTS (3-(4,5-dimethylthiazol-2-yl)-5-(3-carboxymethoxyphenyl)-2-(4-sulfophenyl)-2H-tetrazolium), as described by -Cory et al., Cancer Commun., 1991, 3, 207-212. […] Replicates are typically assayed to allow determination of appropriate statistical properties as known in the art.
Compounds of the invention with structures of Formulae Xa, XVb, and XVa were assayed for inhibition of growth of the T98G human glioblastoma cell line (Table II).
Human glioblastoma T98G cells (American Type Culture Collection, Manassas, Va.) were maintained as exponentially growing cultures in an RPMI 1640 medium with 10% FBS, 1% penicillin and 1% glutamine. The cells were seeded into 96-well plates and allowed to attach and grow for 48 hours. One plate of cells was used for a time zero cell number determination (N=16), and cells in other plates were treated for 72 hours or 96 hours with either DMSO (1% v/v; N=8 for each plate) or a range of concentrations, in quadruplicate, of test agents. Cell number was determined spectrophotometrically at 490 nm minus absorbance at 630 nm after exposure to 3-(4,5-dimethylthiazol-2-yl)-5-(3-carboxymethoxyphenyl)-2-(4-sulfophenyl)-2H-tetrazolium (MTS) and N-methylphenazine methylsulfate. The fifty percent growth inhibitory concentrations (GI50) of test agents were calculated from the spectrophotometrically determined growth of the control cells over the 72- or 96-hour period.

In the next assay the test system is bovine brain tubulin. Briefly: Inhibition of GTP-induced tubulin assembly (turbidimetry at 350 nm). The class given is biochemical. As to conditions: after 20 min at 30° C., 10 μM bovine brain tubulin, 0.8 M monosodium glutamate. On the procedure: Bovine brain tubulin was isolated to electrophoretic homogeneity from fresh brains via methodology described by Hamel and Lin, Biochemistry 23: 4173-84 (1984). Tubulin (final concentration 10 μM; 1 mg/mL) was preincubated with test agents dissolved in DMSO (4% v/v final concentration) and monosodium glutamate (0.8 M final concentration, pH 6.6) for 15 minutes at 30° C. The reaction mixture was cooled to 0° C., and GTP (0.4 mM final concentration) was added. Reaction mixtures were transferred to cuvettes held at 2.5° C. in a Beckmann DU 7400 multichannel, temperature-controlled (Peltier unit) spectrophotometer, reading absorbance (turbidity) at 350 nm in each cuvette every 15 seconds. Baselines were established and temperature was quickly raised to 30° C. (in approximately 1 minute). After 20 minutes, the temperature was returned to 2.5° C. The turbidity value after 20 minutes at 30° C. for GTP alone was assigned as 100% assembly, and for DMSO alone as 0% assembly. The IC50 was calculated by linear regression of the percent assembly values at the same time point obtained with 0.625, 1.25, 2.5, 5, 10 and 20 μM test agent. In experiments to test for disassembly of preformed tubulin polymer, the test agent was added after 7 minutes of GTP-induced assembly.

The mark [4] stands for this setting: 72 h, read-out: GI50 at (72 h) in T98 glioblastoma cells.
Setting [5] is: 72 h, read-out: GI50 in T98G cell, 72 h.
Setting [6] is: 96 h, read-out: GI50 at 96 h in T98 glioblastoma cells.
Where [7] appears, read: 96 h, read-out: GI50 in T98G cell, 96 h.

For the compound `CCC(C)[C@H](NC(=O)[C@H]1CCCCN1C)C(=O)N(C)[C@H](C[C@@H](OC(C)=O)c1nc(C(=O)N[C@@H](Cc2ccccc2)C[C@H](C)C(=O)O)cs1)C(C)C` (stereo partly shown) [WZY-III-63C, N^14-Desacetoxytubulysin H trifluoroacetic acid salt], in assay [1], the “% Inhibition of [3H]dolastatin 10 binding by 5 μM test agent” value is 31 ± 3%. Besides, the IC50 in assay [1] was found to be 10000 ± 1000 nM; in assay [2] it was 5600 ± 500 nM; in the assay with bovine brain tubulin it was 2300 nM. In addition, the “ability to inhibit [3H]vinblastine binding to isolated tubulin (in words)” value in assay [2] is recorded as “equipotent to dolastatin 10”. Besides, the “% Inhibition of [3H]vinblastine binding by 5 μM test agent” value (“% Inhibition of [3H]vinblastine binding” for short) in assay [2] came to 50 ± 4%. For the same compound, in assay [3], the “loss in antiproliferative GI50 compared to dolastatin 10 and tubulysins A or D” value is reported as 1-2 orders of magnitude. Also, the GI50 in assay [3] (72 h) is 430 to 4400 nM; in assay [3] (setting [4]), 4.4 nM; in assay [3] (setting [5]), 4.4 ± 11 nM; in assay [3] (96 h), 350 to 16000 nM; in assay [3] (setting [6]) it was 1.6 ± 0.8 nM; in assay [3] (setting [7]), 1.6 ± 0.8 nM.
On to `CCC(C)[C@H](NC(=O)CN(C)C)C(=O)N(C)[C@H](C[C@H](OC(C)=O)c1nc(C(=O)N[C@@H](Cc2ccccc2)C[C@H](C)C(=O)O)cs1)C(C)C` (stereo partly drawn) [WZY-III-64A, (2S,4R)-4-(2-((6S,9R,11S)-6-sec-Butyl-9-isopropyl-2,8-dimethyl-4,7,13-trioxo-12-oxa-2,5,8-triazatetradecan-11-yl)thiazole-4-carboxamido)-2-methyl-5-phenylpentanoic acid], for which the “% Inhibition of [3H]dolastatin 10 binding by 5 μM test agent” value in assay [1] is on record as −11 ± 10%. For the same compound, in assay [2], the “% Inhibition of [3H]vinblastine binding” value was 2 ± 5%. Also, the IC50 was above 50000 nM in assay [2] and above 5000 nM in the assay with bovine brain tubulin. Moreover, the GI50 in assay [3] (72 h) is 430 to 4400 nM; in assay [3] (setting [4]), 590 nM; in assay [3] (setting [5]), 590 ± 1000 nM; in assay [3] (96 h), 350 to 16000 nM; in assay [3] (setting [6]), 400 ± 30 nM; in assay [3] (setting [7]), 400 ± 30 nM.
In the case of `CCC(C)[C@H](NC(=O)CN(C)C)C(=O)N(C)[C@H](C[C@@H](OC(C)=O)c1nc(C(=O)N[C@@H](Cc2ccccc2)C[C@H](C)C(=O)O)cs1)C(C)C` (stereo partly drawn) [WZY-III-69A, (2S,4R)-4-(2-((6S,9R,11R)-6-sec-Butyl-9-iso-propyl-2,8-dimethyl-4,7,13-trioxo-12-oxa-2,5,8-triazatetradecan-11-yl)thiazole-4-carboxamido)-2-methyl-5-phenylpentanoic acid], the “% Inhibition of [3H]dolastatin 10 binding by 5 μM test agent” value in assay [1] stood at 4 ± 3%. The IC50 came to 64000 ± 9000 nM in assay [1], 8800 ± 1600 nM in assay [2] and 3100 nM in the assay with bovine brain tubulin. In assay [2], the “% Inhibition of [3H]vinblastine binding” value is 43 ± 1%. In addition, the GI50 is 430 to 4400 nM in assay [3] (72 h); 430 nM in assay [3] (setting [4]); 430 ± 130 nM in assay [3] (setting [5]); 350 to 16000 nM in assay [3] (96 h); 350 ± 40 nM in assay [3] (setting [6]); 350 ± 40 nM in assay [3] (setting [7]).
